Laboratory results published in article PMC11722285, “Exploring the Potential of Malvidin and Echiodinin as Probable Antileishmanial Agents Through In Silico Analysis and In Vitro Efficacy” (Molecules, 2025).
Read-outs that look alike come from different tables or passages of the source. Blank lines part the entries; values can stand above or below the molecule they belong to.

How the values were obtained:
Assay type in all cases: cell-based
[1] = test system: L. infantum stationary promastigotes; experiment: In vitro antileishmanial activity, stationary promastigotes (MTT); details: for IC50: Leishmania infantum, 48 h, read-out: IC50 (µM) Stationary Promastigotes L. infantum; for Selectivity Index (SI) Stationary Promastigotes L. infantum: ratio between CC50 (macrophages) and IC50
Experimental: (§1) L. amazonensis (IFLA/BR/1967/PH-8), L. braziliensis (MHOM/BR/1975/M2903), and L. infantum (MHOM/BR/1970/BH46) were used as parasites. Stationary promastigotes were grown at a 24 °C in complete Schneider’s medium (Sigma-Aldrich, St. Louis, MO, USA), which was composed of medium plus 20% (v/v) heat-inactivated fetal bovine serum (FBS; Sigma-Aldrich, USA) and 20 mM L-glutamine with a pH of 7.4 [139]. To obtain the axenic amastigotes, 10^9 stationary promastigotes were washed three times in sterile phosphate-buffered saline (PBS 1X and incubated in 5 mL FBS for 48 h (L. amazonensis and L. braziliensis) and 72 h (L. infantum), respectively, at 37 °C. Parasites were washed in cold PBS 1x, and their morphology was evaluated after staining using the Giemsa method in an optical microscope, as previously described.
(§2) AmpB (0 to 10.8 µM; Sigma-Aldrich, USA) was used as control. Cell viability was assessed through 3-(4.5-dimethylthiazol-2-yl)-2.5-diphenyl tetrazolium bromide (Sigma-Aldrich, USA) method. Optical density (OD) values were measured in a microplate spectrophotometer (Molecular Devices, Spectra Max Plus, San Jose, CA, USA) at 570 nm. IC50 values were calculated by sigmoidal regression of dose–response curves in Microsoft Excel software (version 10.0). Two-tailed Student’s t-tests (p < 0.05) were used to compare IC50 values between malvidin and echioidinin, assessing significant differences in inhibitory activity.

[2] = test system: L. braziliensis stationary promastigotes; experiment: as above; details: for IC50: Leishmania braziliensis, 48 h, read-out: IC50 (µM) Stationary Promastigotes L. braziliensis; for Selectivity Index (SI) Stationary Promastigotes L. braziliensis: ratio between CC50 (macrophages) and IC50
Experimental: as §1, §2

[3] = test system: L. amazonensis stationary promastigotes; experiment: as above; details: for IC50: Leishmania amazonensis, 48 h, read-out: IC50 (µM) Stationary Promastigotes L. amazonensis; for Selectivity Index (SI) Stationary Promastigotes L. amazonensis: ratio between CC50 (macrophages) and IC50
Experimental: as §1, §2

[4] = test system: O+ human red blood cells; experiment: Hemolytic activity; details: lysis of 50% of O+ human red blood cells; 1 h; mean ± SD
Experimental: (§3) Cytotoxicity was evaluated ex vivo in murine macrophages and human red blood cells, for which concentrations inhibiting 50% of macrophages (CC50) and red blood cells (RBC50) were determined. Briefly, murine cells (5 × 10^5) or a 5% human red blood cells suspension were incubated in the presence of malvidin (0 to 301.84 µM) or echioidinin (0 to 356.76 µM) AmpB (0 to 10.82 µM) was used as control. Cells were incubated in RPMI 1640 medium for 48 h (murine macrophages) or 1 h (red blood cells) at 37 °C in 5% CO2. Macrophage viability was assessed using the MTT method. The red blood cell suspension was centrifuged at 1000× g for 10 min at 4 °C, after which the percentage of cell lysis was evaluated spectrophotometrically at 570 nm. The hemolysis was determined by replacing the natural products with an equal volume of phosphate-buffered saline with a pH of 7.4 (PBS—negative control) or distilled water (positive control). CC50 and RBC50 values were calculated by sigmoidal regression of dose–response curves in Microsoft Excel software (version 10.0). SI was calculated as the ratio between CC50 and IC50 values.

[5] = test system: L. braziliensis axenic amastigotes; experiment: In vitro antileishmanial activity, axenic amastigotes (MTT); details: for IC50: Leishmania braziliensis, 48 h, read-out: IC50 (µM) Axenic amastigotes L. braziliensis; for Selectivity Index (SI) Axenic amastigotes L. braziliensis: ratio between CC50 (macrophages) and IC50
Experimental: as §1, §2

[6] = test system: L. amazonensis axenic amastigotes; experiment: as above; details: for IC50: Leishmania amazonensis, 48 h, read-out: IC50 (µM) Axenic amastigotes L. amazonensis; for Selectivity Index (SI) Axenic amastigotes L. amazonensis: ratio between CC50 (macrophages) and IC50
Experimental: as §1, §2

[7] = test system: L. infantum axenic amastigotes; experiment: as above; details: for IC50: Leishmania infantum, 48 h, read-out: IC50 (µM) Axenic amastigotes L. infantum; for Selectivity Index (SI) Axenic amastigotes L. infantum: ratio between CC50 (macrophages) and IC50
Experimental: as §1, §2

[8] = test system: L. amazonensis-infected murine macrophages; experiment: Treatment of infected macrophages; details: 48 h
Experimental: (§4) To evaluate the efficacy of malvidin or echioidinin for treating infected macrophages, murine cells (5 × 10^5) were plated on round glass coverslips in 24-well plates in RPMI 1640 medium supplemented with 20% (v/v) FBS and 20 mM L-glutamine at a pH of 7.4 and incubated for 24 h at 37 °C in 5% CO2. Stationary promastigotes were added to the wells at a ratio of 10 parasites per macrophage, and cultures were incubated further for 48 h at 37 °C for 5% CO2. Free parasites were removed by extensive washing with RPMI 1640 medium, and infected macrophages were treated with malvidin (30.18, 60.37, and 120.74 µM), echioidinin (35.18, 70.36, and 140.72 µM), or AmpB (2.70 and 5.41 µM) for 48 h at […] in 5% CO2. After fixation with 4% paraformaldehyde, cells were washed and stained with Giemsa, and the infection percentage, the number of amastigotes per infected macrophage, and the reduction in the infection percentage were determined by counting 200 cells in triplicate, using an optical microscope.

[9] = test system: L. braziliensis-infected murine macrophages; experiment: Treatment of infected macrophages; details: 48 h
Experimental: as §4

[10] = test system: L. infantum-infected murine macrophages; experiment: Treatment of infected macrophages; details: 48 h
Experimental: as §4

[11] = Cytotoxicity assay in macrophages (MTT); details: mouse, murine macrophages, mean ± SD
Experimental: as §3, with “Briefly, murine cells (5 × 10^5) or a 5% human red blood cells suspension were incubated in the presence of malvidin (0 to 301.84 µM) or echioidinin (0 to 356.76 µM) AmpB (0 to 10.82 µM) was used as control.” left out

[12] = stationary promastigotes, mean ± SD

IC50 [1, 12]: 213 ± 16 µM
IC50 [2, 12]: 251 ± 22 µM
IC50 [3, 12]: 273 ± 29 µM
IC50 ([5]; axenic amastigotes, mean ± SD): 293 ± 20 µM
IC50 ([6]; axenic amastigotes, mean ± SD): 336 ± 19 µM
IC50 ([7]; axenic amastigotes, mean ± SD): 262 ± 17 µM
Structure (SMILES): COc1cc(O)c2c(=O)cc(-c3ccccc3O)oc2c1 [Echioidinin, echioidinin]
Selectivity Index (SI) Stationary Promastigotes L. infantum [1]: 14.00
Selectivity Index (SI) Stationary Promastigotes L. braziliensis [2]: 12.10
Selectivity Index (SI) Stationary Promastigotes L. amazonensis [3]: 10.80
RBC50 [4]: 3400.76 ± 78 µM
Selectivity Index (SI) Axenic amastigotes L. braziliensis [5]: 10.30
Selectivity Index (SI) Axenic amastigotes L. amazonensis [6]: 8.90
Selectivity Index (SI) Axenic amastigotes L. infantum [7]: 11.60
Infection After Treatment (%) ([8]; 35.18 µM): 80.20%
Infectiveness Reduction (%) ([8]; 35.18 µM): 13.11%
Number of Amastigotes per Macrophage ([8]; 35.18 µM): 5.40
Infection After Treatment (%) ([8]; 70.36 µM): 71.80%
Infectiveness Reduction (%) ([8]; 70.36 µM): 22.21%
Number of Amastigotes per Macrophage ([8]; 70.36 µM): 3.70
Infection After Treatment (%) ([8]; 140.72 µM): 63.40%
Infectiveness Reduction (%) ([8]; 140.72 µM): 31.31%
Number of Amastigotes per Macrophage ([8]; 140.72 µM): 6.30
Infection After Treatment (%) ([9]; 35.18 µM): 56.50%
Infectiveness Reduction (%) ([9]; 35.18 µM): 17.76%
Number of Amastigotes per Macrophage ([9]; 35.18 µM): 6.40
Infection After Treatment (%) ([9]; 70.36 µM): 50.80%
Infectiveness Reduction (%) ([9]; 70.36 µM): 26.06%
Number of Amastigotes per Macrophage ([9]; 70.36 µM): 3.70
Infection After Treatment (%) ([9]; 140.72 µM): 43.20%
Infectiveness Reduction (%) ([9]; 140.72 µM): 37.12%
Number of Amastigotes per Macrophage ([9]; 140.72 µM): 3.70
Infection After Treatment (%) ([10]; 35.18 µM): 65.50%
Infectiveness Reduction (%) ([10]; 35.18 µM): 12.08%
Number of Amastigotes per Macrophage ([10]; 35.18 µM): 4.80
Infection After Treatment (%) ([10]; 70.36 µM): 58.70%
Infectiveness Reduction (%) ([10]; 70.36 µM): 21.21%
Number of Amastigotes per Macrophage ([10]; 70.36 µM): 2.80
Infection After Treatment (%) ([10]; 140.72 µM): 50.70%
Infectiveness Reduction (%) ([10]; 140.72 µM): 31.95%
Number of Amastigotes per Macrophage ([10]; 140.72 µM): 4.20
CC50 at 48 h [11]: 3.01 ± 0.114 mM

Structure (SMILES): COc1cc(-c2[o+]c3cc(O)cc(O)c3cc2O)cc(OC)c1O [Malvidin, malvidin]
IC50 [1]: 141 ± 26 µM
Selectivity Index (SI) Stationary Promastigotes L. infantum [1]: 20.70
IC50 [2]: 164 ± 19 µM
Selectivity Index (SI) Stationary Promastigotes L. braziliensis [2]: 17.60
IC50 [3]: 198 ± 17 µM
Selectivity Index (SI) Stationary Promastigotes L. amazonensis [3]: 14.70
RBC50 [4]: 3120.13 ± 107 µM
IC50 [5]: 227.9 ± 1 µM
Selectivity Index (SI) Axenic amastigotes L. braziliensis [5]: 12.70
IC50 [6]: 258 ± 17 µM
Selectivity Index (SI) Axenic amastigotes L. amazonensis [6]: 11.30
IC50 [7]: 174 ± 19 µM
Selectivity Index (SI) Axenic amastigotes L. infantum [7]: 16.70
Selectivity Index (SI) Axenic amastigotes L. infantum ([7]; listed as malvidin): 14.70
Infection After Treatment (%) ([8]; 30.18 µM): 75.60%
Infectiveness Reduction (%) ([8]; 30.18 µM): 18.09%
Number of Amastigotes per Macrophage ([8]; 30.18 µM): 3.30
Infection After Treatment (%) ([8]; 60.37 µM): 61.10%
Infectiveness Reduction (%) ([8]; 60.37 µM): 33.80%
Number of Amastigotes per Macrophage ([8]; 60.37 µM): 2.80
Infection After Treatment (%) ([8]; 120.74 µM): 59.30%
Infectiveness Reduction (%) ([8]; 120.74 µM): 35.75%
Number of Amastigotes per Macrophage ([8]; 120.74 µM): 3.80
Infection After Treatment (%) ([9]; 30.18 µM): 52.10%
Infectiveness Reduction (%) ([9]; 30.18 µM): 24.16%
Number of Amastigotes per Macrophage ([9]; 30.18 µM): 4.40
Infection After Treatment (%) ([9]; 60.37 µM): 48.70%
Infectiveness Reduction (%) ([9]; 60.37 µM): 29.11%
Number of Amastigotes per Macrophage ([9]; 60.37 µM): 5.40
Infection After Treatment (%) ([9]; 120.74 µM): 39.80%
Infectiveness Reduction (%) ([9]; 120.74 µM): 42.07%
Number of Amastigotes per Macrophage ([9]; 120.74 µM): 3.30
Infection After Treatment (%) ([10]; 30.18 µM): 61.20%
Infectiveness Reduction (%) ([10]; 30.18 µM): 17.85%
Number of Amastigotes per Macrophage ([10]; 30.18 µM): 4.70
Infection After Treatment (%) ([10]; 60.37 µM): 55.60%
Infectiveness Reduction (%) ([10]; 60.37 µM): 25.37%
Number of Amastigotes per Macrophage ([10]; 60.37 µM): 3.70
Infection After Treatment (%) ([10]; 120.74 µM): 49.80%
Infectiveness Reduction (%) ([10]; 120.74 µM): 33.15%
Number of Amastigotes per Macrophage ([10]; 120.74 µM): 2.70
CC50 at 48 h [11]: 2.92 ± 0.08 mM
